# Laboratory results from patent EP4640223A1, “PHARMACEUTICAL COMPOSITION FOR PREVENTION OR TREATMENT OF CARDIOVASCULAR DISEASE, COMPRISING SODIUM-GLUCOSE COTRANSPORTER-2 INHIBITOR AND ANGIOTENSIN II RECEPTOR BLOCKER” (THPharm Corp., priority 2022, dated 2024).
# Assays:
# [1] = test system: angiotensin converting enzyme (ACE); test: ACE protein expression (Human ACE ELISA) in LPS inflammation-induced H9c2 cells; type: cell-based, rat
# Method: Specifically, H9c2 cells as a human cardiac cell line were obtained and used from the Korea Cell Line Bank (KCLB 40071, Korea) and incubated and prepared in a DMEM medium supplemented with 10% FBS and 1% antibiotic-antimycotic (10 units/ml penicillin, 100 µg/ml streptomycin, 0.25 µg/ml amphotericin) under 37°C and 5% CO2 conditions.
# To confirm the effect on ACE activity, the prepared H9c2 cells were treated with 2.5 µg/ml of Lipopolysaccharide (LPS), which was 2.5 times more than the amount used in conventional inflammation-related experiments, to induce inflammation, thereby setting the optimized conditions for confirming ACE expression. […]
# To perform the ELISA assay, 10,000 pg/ml, 5,000 pg/ml, 2,500 pg/ml, 1,250 pg/ml, 625 pg/ml, 312 pg/ml, and 156 pg/ml of Human ACE standard solutions and a standard dilution buffer were added by 0.1 ml to each well of an antibody-coated 96-well plate. […] Thereafter, each well was added with 90 µl of the prepared TMB solution, incubated for 20 to 25 minutes in a dark room at 37°C, and then treated with each 0.1 ml of the prepared TMB stop solution to stop an ACE ELISA reaction, and the OD absorbance at 450 nm was read in a microplate reader within 30 minutes, and the relative OD450 was derived using the following Equation. […]
# MDCK cells = test: Cell survival rate (MTT) in MDCK cells; type: cell-based; settings: after 24 hours and 48 hours, up to a concentration of 25 µM
# Method: (§1) Specifically, A549 cells were obtained from the Korean Cell Line Bank (KCLB) and subcultured using a RPMI-1640 medium supplemented with 10% fetal bovine serum (FBS) and 1% Penicillin, and MDCK cells were obtained from ATCC and subcultured using a DMEM medium supplemented with 10% FBS. 200 µl each of the A549 cells and MDCK cells incubated in an incubator under 37°C and 5% CO2 conditions were dispensed at 2 × 10^4 cells/well in a 96-well plate, and then a control group was treated with 100 µl of the medium, and experimental groups were treated with 1.25, 25, 50, and 100 µM of Telmisartan or Olmesartan, respectively. After 24 hours and 48 hours, all of the wells were treated with 50 µl each of a 2 mg/ml MTT reagent and incubated in an incubator for 3 hours, and then each well was added with 500 µl of DMSO, wrapped in foil, stirred for 30 minutes at room temperature, and the absorbance was measured at 570 nm to obtain the cell survival rate.
# A549 cells = test: Cell survival rate (MTT) in A549 cells; type: cell-based; settings: after 24 hours and 48 hours, up to a concentration of 25 µM
# Method: as §1
# [2] = 4-week repeated oral administration toxicity; type: in vivo, Sprague-Dawley rats; settings: daily for 4 weeks
# Method: Specifically, groups were configured in the same manner as in Experimental Example 4-1, and the combinations were administered orally daily for 4 weeks to 5 male and 5 female 6-week-old Sprague-Dawley rats per group. During the test, general symptom observation, blood test, and body weight measurement were performed, and after the observation period ended, the rats were euthanized and autopsied.
# [3] = Telmisartan 80 mg in the presence of Dapagliflozin 10 mg, repeated oral, steady state
# [4] = test system: angiotensin converting enzyme (ACE); test: ACE mRNA expression (RT-PCR, normalized to GAPDH) in LPS inflammation-induced H9c2 cells; type: cell-based, rat
# Method: Specifically, LPS inflammation-induced H9c2 cells in Experimental Example 1-2 were treated with 10 or 25 µM Telmisartan and 10 or 50 µM Olmesartan, and then treated with 200 µl of chloroform together with 1 ml of TRIZol (Sigma, USA), gently mixed, and separated for 10 minutes, and then centrifuged at 4°C and 10,000 rpm for 10 minutes. After centrifugation, only the supernatant from the tube was taken and transferred to a new sterile tube, and the supernatant was treated with 500 µl of isopropanol to precipitate RNA. The precipitated RNA was centrifuged at 4°C, 10,000 rpm for 10 minutes, and then the supernatant except for the pellets in the tube was fully removed, and the RNA pellets were treated with 500 µl of 75% ethyl alcohol and thoroughly washed. The washed pellets were centrifuged at 4°C, 10,000 rpm for 5 minutes, and then the supernatant except the pellets was fully removed. The tube containing the pellets from which the supernatant had been cleanly removed was treated with diethyl pyrocarbonate (DEPC)-water and stored at - 80°C for use in an RT-PCR experiment.
# RT-PCR was performed by synthesizing cDNA from mRNA using an RT-PCR kit containing DNA polymerase, buffer, dNTP, and tracking dye, and then using ACE primers in Table 1 under the conditions in Table 2 for 35 cycles. The PCR products were electrophoresed on a […] agarose gel, identified using a UV transilluminator, and expressed as normalized to GAPDH for quantitative comparison.
# In order to confirm the effect of each combination or single substance on the mRNA expression of ACE, the experimental samples in Table 3 were treated to H9c2 cells induced with LPS inflammation in Experimental Example 1-2, respectively, and then the mRNA expression of ACE was evaluated in the same manner as in Experimental Example 1-3.
smiles,measurement,setting,value
"CCCc1nc2c(C)cc(-c3nc4ccccc4n3C)cc2n1Cc1ccc(-c2ccccc2C(=O)O)cc1 [Telmisartan, 4'-[(1,4'-dimethyl-2'-propyl[2,6'-bi-1H-benzimidazol]-1'-yl)methyl][1,1'-biphenyl]-2-carboxylic acid]",ACE expression inhibition effect,[1]; 25 µM treatment group,the best
same,ACE expression inhibition effect,"[1]; all treatment concentrations (10, 25, 50 µM), comparison with Olmesartan",superior to that of Olmesartan
same,cell survival rate,MDCK cells,no effect
same,cell survival rate,A549 cells,no effect
same,body weight measurement,[2],tendency for inhibiting weight gain
same,Cmax T/R ratio,[3]; 90% confidence interval 0.99 to 1.43,1.19
same,AUC T/R ratio,[3]; 90% confidence interval 1.01 to 1.18,1.09
same,mRNA expression,"[4]; ACE mRNA, 25 µM treatment group",mostly inhibited
same,mRNA expression inhibition effect,"[4]; ACE mRNA, all treatment concentrations (Telmisartan 10 or 25 µM, Olmesartan 10 or 50 µM)",superior to that of Olmesartan
same,mRNA expression of ACE,"[4]; alone, low-concentration administration groups of 2.5 µM to 10 µM",did not decrease to a normal level
